Read-outs that look alike come from different tables or passages of the source.
Assays:
NDM-1 = NDM-1 (Klebsiella pneumoniae, UniProt C7C422); assay: Enzyme activity: determination of IC50, fluorescence assay with CCF2-FA substrate; format: biochemical; details: CCF2-FA 1.25 μM, 2 hours at 25° C.
Method in brief: (§1)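 Read-out: fluorescence, ex 405 nm / em 460 nm, after 2 h at 25° C with 1.25 μM CCF2-FA. Buffer 100 mM KH2PO4 pH 7, 0.005% Tween-20, 10 μM ZnSO4; enzyme 1 pM NDM-1, 2 pM IMP-1, 30 pM VIM-1. IC50 by 4-parameter fit.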

IMP-1 = IMP-1 (Serratia marcescens, UniProt P52699); assay: as above; format: biochemical; details: enzyme 2 pM, CCF2-FA 1.25 μM, 2 hours at 25° C.; read-out: IMP1 IC50
Sequence of IMP-1 (P52699 19-246, looked up, species assumed): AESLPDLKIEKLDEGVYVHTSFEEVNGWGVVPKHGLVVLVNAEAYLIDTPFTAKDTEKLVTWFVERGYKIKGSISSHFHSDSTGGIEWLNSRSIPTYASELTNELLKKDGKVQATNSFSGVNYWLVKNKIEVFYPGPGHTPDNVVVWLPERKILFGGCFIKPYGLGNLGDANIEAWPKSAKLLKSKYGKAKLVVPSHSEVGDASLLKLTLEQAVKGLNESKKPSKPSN
Method in brief: as §1

VIM-1 = VIM-1 (Pseudomonas aeruginosa, UniProt A0A0F7KYQ8); assay: as above; format: biochemical; details: enzyme 30 pM, CCF2-FA 1.25 μM, 2 hours at 25° C.; read-out: VIM1 IC50
Method in brief: as §1

[1] = test system: Klebsiella pneumoniae expressing VIM-1 (IHMA599644); assay: Antibiotic potentiation activity: synergistic concentration (MITC95) with imipenem, growth by OD600; format: cell-based; details: 95% inhibition of bacterial growth, strain IHMA599644
Method in brief: (§2)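 Strains grown overnight at 35° C, resuspended in saline, diluted 1:100 into 1.1×CAMHB; imipenem at 1 μg/ml or 4 μg/ml with test compound 200 μM to 0.195 μM. Incubated 22 hours to 24 hours at 35° C, OD600 read; MITC95 is lowest compound concentration inhibiting 95% of growth.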

[2] = test system: Escherichia coli expressing NDM-1 (CLB30005); assay: as above; format: cell-based; details: 95% inhibition of bacterial growth, strain CLB30005
Method in brief: as §2

[3] = test system: Serratia marcescens expressing IMP-1 (CL5741); assay: as above; format: cell-based; details: 95% inhibition of bacterial growth, strain CL5741
Method in brief: as §2

[4] = enzyme 1 pM, read-out: NDM1 IC50

Sequence of NDM-1 (C7C422 29-270, looked up, species assumed): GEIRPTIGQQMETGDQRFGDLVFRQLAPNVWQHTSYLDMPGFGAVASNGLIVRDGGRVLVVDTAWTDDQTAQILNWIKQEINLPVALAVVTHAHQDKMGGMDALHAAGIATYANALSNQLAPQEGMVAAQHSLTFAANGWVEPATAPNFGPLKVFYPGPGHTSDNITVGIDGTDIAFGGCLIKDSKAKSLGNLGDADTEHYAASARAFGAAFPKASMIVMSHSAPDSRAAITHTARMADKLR

Structure (SMILES)	IC50 (NDM-1; [4]) [nM]	IC50 (IMP-1) [nM]	IC50 (VIM-1) [nM]	VIM1 KP599644 MITC95 [1] [µM]	NDM1 EC30005 MITC95 [2] [µM]	IMP1 SM5741 MITC95 [3] [µM]	IC50 (NDM-1; NDM1 IC50, enzyme 1 pM) [nM]
CC(C)CCCCC[C@H](C(=O)O)[C@H](Cc1ccc2c(c1)OCO2)c1nnn[nH]1 [Example 38, (2S)-2-[(1S)-2-(1,3-benzodioxol-5-yl)-1-(2H-tetrazol-5-yl)ethyl]-8-methylnonanoic acid]	12	49	5.5	>200	100	31	–
CCCCC[C@H](C(=O)O)[C@H](Cc1ccc2c(c1)OCO2)c1nnn[nH]1 [Example 39, (2S)-2-[(1S)-2-(1,3-benzodioxol-5-yl)-1-(1H-tetrazol-5-yl)ethyl]heptanoic acid]	86	210	11	100	75	>200	–
CCC[C@H](C(=O)O)[C@H](Cc1ccc(C#N)cc1)c1nn[nH]n1 [Example 40, (S)-2-((S)-2-(4-cyanophenyl)-1-(2H-tetrazol-5-yl)ethyl)pentanoic acid]	160	2500	4.3	25	8.3	100	–
CCC[C@H](C(=O)O)[C@H](Cc1ccc(C(N)=O)cc1)c1nn[nH]n1 [Example 45, (S)-2-((S)-2-(4-carbamoylphenyl)-1-(2H-tetrazol-5-yl)ethyl)pentanoic acid]	93	850	3.3	25	4.2	37.5	–
CCC[C@H](C(=O)O)[C@H](Cc1ccc(S(C)(=O)=O)cc1)c1nn[nH]n1 [Example 49, (S)-2-((S)-2-(4-(methylsulfonyl)phenyl)-1-(2H-tetrazol-5-yl)ethyl)pentanoic acid]	69	720	7.6	50	6.2	37.5	–
CC[C@H](C)[C@H](C(=O)O)[C@H](Cc1ccc(-c2ccc(-c3nnn[nH]3)cc2)cc1)c1nn[nH]n1 [Example 58, (2S,3S)-2-((S)-2-(4′-(1H-tetrazol-5-yl)-[1,1′-biphenyl]-4-yl)-1-(2H-tetrazol-5-yl)ethyl)-3-methylpentanoic acid]	< 0.64	1.4	5.1	200	18.8	12.9	–
CC(C)[C@H](C(=O)O)[C@H](Cc1ccc(C2=CCNCC2)cc1)c1nnn[nH]1 [Example 59, (2S,3S)-2-isopropyl-4-(4-(1,2,3,6-tetrahydropyridin-4-yl)phenyl)-3-(1H-tetrazol-5-yl)butanoic acid]	–	55	10	150	12.5	56.2	9
CCC[C@H](C(=O)O)[C@H](Cc1ccc(Cl)nc1)c1nnn[nH]1 [Example 82, (S)-2-((S)-2-(6-chloropyridin-3-yl)-1-(1H-tetrazol-5-yl)ethyl)pentanoic acid]	240	4600	5.7	25	6.2	200	–
CCC[C@H](C(=O)O)[C@H](Cc1ccc(Cl)cn1)c1nnn[nH]1 [Example 83, (S)-2-((S)-2-(5-chloropyridin-2-yl)-1-(1H-tetrazol-5-yl)ethyl)pentanoic acid]	880	> 20000	71	100	8.3	>200	–
CCC[C@H](C(=O)O)[C@H](Cc1ccc(-c2ccc3c(c2)CNC3)nc1)c1nnn[nH]1 [Example 95, 5-(5-((2S,3S)-3-carboxy-2-(1H-tetrazol-5-yl)hexyl)pyridin-2-yl)isoindolin-2-ium]	160	2500	6.5	12.5	3.1	50	–
CCC[C@H](C(=O)O)[C@H](Cc1ccc(Br)nc1)c1nnn[nH]1 [Example 143]	53	1700	2.6	100	12.5	>200	–
CCC[C@H](C(=O)O)[C@H](Cc1ccc(N2CCNCC2)nc1)c1nnn[nH]1 [Example 145, (S)-2-((S)-2-(6-(piperazin-1-yl)pyridin-3-yl)-1-(1H-tetrazol-5-yl)ethyl)pentanoic acid]	–	12000	18	75	6.2	200	700
CCC[C@H](C(=O)O)[C@H](Cc1ccc(-c2c(C)nn(C)c2C)nc1)c1nnn[nH]1 [Example 158, (S)-2-((S)-1-(1H-tetrazol-5-yl)-2-(6-(1,3,5-trimethyl-1H-pyrazol-4-yl)pyridin-3-yl)ethyl)pentanoic acid]	14	61	25	100	62	12.5	–
CCCC[C@@H](C(=O)O)[C@@H](Cc1ccc(-c2ccc(S(N)(=O)=O)cc2)cc1)c1nn[nH]n1 [Example 184, (2R)-2-[(1R)-2-(4′-sulfamoylbiphenyl-4-yl)-1-(2H-tetrazol-5-yl)ethyl]hexanoic acid]	900	200	300	>200	>200	100	–
CCCC[C@@H](C(=O)O)[C@@H](Cc1ccc(-c2c(C)nn(C)c2C)cc1)c1nn[nH]n1 [Example 185, (2R)-2-{(1R)-1-(2H-tetrazol-5-yl)-2-[4-(1,3,5-trimethyl-1H-pyrazol-4-yl)phenyl]ethyl}hexanoic acid]	880	11	740	>200	>200	100	–
CCCC[C@@H](C(=O)O)[C@@H](Cc1ccc(-c2cn[nH]c2)cc1)c1nn[nH]n1 [Example 186, (2R)-2-[(1R)-2-[4-(1H-pyrazol-4-yl)phenyl]-1-(2H-tetrazol-5-yl)ethyl]hexanoic acid]	750	140	60	>200	200	12.5	–
CCCC[C@@H](C(=O)O)[C@@H](Cc1ccc(-c2cnn(-c3ccccc3)c2)cc1)c1nn[nH]n1 [Example 187, (2R)-2-[(1R)-2-[4-(1-phenyl-1H-pyrazol-4-yl)phenyl]-1-(2H-tetrazol-5-yl)ethyl]hexanoic acid]	980	180	140	>200	>200	103	–
CCCC[C@@H](C(=O)O)[C@@H](Cc1ccc(-c2ccccc2)cc1)c1nn[nH]n1 [Example 188, (2R)-2-[(1R)-2-biphenyl-4-yl-1-(2H-tetrazol-5-yl)ethyl]hexanoic acid]	640	140	180	>200	>200	53	–
CCC[C@H](C(=O)O)[C@H](Cc1ccc(-c2ccc(N(C)C)nc2)cc1)c1nn[nH]n1 [Example 189, (2S)-2-[(1S)-2-{4-[6-(dimethylamino)pyridin-3-yl]phenyl}-1-(2H-tetrazol-5-yl)ethyl]pentanoic acid]	13	29	4.3	100	2.3	7.8	–
CCC[C@H](C(=O)O)[C@H](Cc1ccc(-c2cncc(N3CCN(C)CC3)c2)cc1)c1nn[nH]n1 [Example 190, (2S)-2-[(1S)-2-{4-[5-(4-methylpiperazin-1-yl)pyridin-3-yl]phenyl}-1-(2H-tetrazol-5-yl)ethyl]pentanoic acid]	110	610	5.4	75	9.4	38	–
CCC[C@H](C(=O)O)[C@H](Cc1ccc(-c2cncc(CN3CCCCC3)c2)cc1)c1nn[nH]n1 [Example 191, (2S)-2-[(1S)-2-{4-[5-(piperidin-1-ylmethyl)pyridin-3-yl]phenyl}-1-(2H-tetrazol-5-yl)ethyl]pentanoic acid]	260	1100	8.3	62	25	62	–

Source: patent US9839642B2, “Beta-tetrazolyl-propionic acids as metallo-beta-lactamase inhibitors” (priority 2014, dated 2017)
